The source made the active and inactive calls. No cut-off for these calls is given here.
Experiments:
Nucleic Acid [1] = assay: Binding affinity to poly C single stranded RNA at pH 7 by fluorometric titration method; assay type: nucleic-acid assay
HT-29 = assay: Cytotoxicity against human HT-29 cells after 72 hrs by MTT assay; assay type: functional, cell-based; details: HT-29, 72 h
Caco-2 = assay: Cytotoxicity against human Caco-2 cells after 72 hrs by MTT assay; assay type: functional, cell-based; details: Caco-2, 72 h
Nucleic Acid [2] = assay: Binding affinity to poly U single stranded RNA at pH 7 by fluorometric titration method; assay type: nucleic-acid assay
K562 = assay: Cytotoxicity against human K562 cells after 72 hrs by MTT assay; assay type: functional, cell-based; details: K562, 72 h
HuT78 = assay: Cytotoxicity against human HUT78 cells after 72 hrs by MTT assay; assay type: functional, cell-based; details: HuT78, 72 h
Nucleic Acid [3] = assay: Binding affinity to nuclear DNA in human HeLa cells at 0.1 uM after 60 mins by DAPI staining-based fluorescence microscopy; assay type: cell-based
SW-620 = assay: Cytotoxicity against human SW620 cells after 72 hrs by MTT assay; assay type: functional, cell-based; details: SW-620, 72 h
HeLa [4] = assay: Cytotoxicity against human HeLa cells after 72 hrs by MTT assay; assay type: functional, cell-based
Calf thymus DNA [5] = assay: Binding affinity to calf thymus double stranded DNA at pH 7 by fluorometric titration method; assay type: nucleic-acid assay; details: Bos taurus
Nucleic Acid [6] = assay: Binding affinity to double stranded RNA at pH 7 by fluorometric titration method; assay type: nucleic-acid assay
Nucleic Acid [7] = assay: Binding affinity to poly G single stranded RNA at pH 7 by fluorometric titration method; assay type: nucleic-acid assay
Jurkat = assay: Cytotoxicity against human Jurkat cells after 72 hrs by MTT assay; assay type: functional, cell-based
[8] = Cytotoxicity against human lymphocytes after 72 hrs by MTT assay; assay type: cell-based; details: Lymphocyte
NCI-H358 = assay: Cytotoxicity against human NCI-H358 cells after 72 hrs by MTT assay; assay type: functional, cell-based; details: NCI-H358, 72 h
MIA PaCa-2 = assay: Cytotoxicity against human MIAPaCa2 cells after 72 hrs by MTT assay; assay type: functional, cell-based; details: MIA PaCa-2, 72 h
Calf thymus DNA [9] = assay: Binding affinity to calf thymus double helix DNA assessed as thermal denaturation-associated change in melting temperature at pH 7 by tangent method; assay type: nucleic-acid assay; details: Bos taurus
Nucleic Acid [10] = assay: Binding affinity to poly A-poly U assessed as thermal denaturation-associated change in melting temperature at pH 7 by tangent method; assay type: nucleic-acid assay
[11] = Cytotoxicity against HAEC after 72 hrs by MTT assay; parameters: species or system Homo sapiens
[12] = Cytotoxicity against human Hep2 cells after 72 hrs by MTT assay; assay type: cell-based; details: HEp-2, 72 h
HeLa [13] = assay: Cytotoxicity against human HeLa cells at 0.1 uM after 60 mins by DAPI staining-based visible light microscopy; assay type: functional, cell-based
Nucleic Acid [14] = assay: Binding affinity to poly A single stranded RNA at pH 7 by fluorometric titration method; assay type: nucleic-acid assay
Nucleic Acid [15] = assay: Binding affinity to poly A-poly U at pH 7 by fluorometric titration method; assay type: nucleic-acid assay

Row | SMILES | log Ks (Nucleic Acid [1]) | log Ks (Nucleic Acid [2]) | log Ks (Calf thymus DNA [5]) | Activity (Nucleic Acid [6]) | log Ks (Nucleic Acid [7]) | ΔTm (Calf thymus DNA [9]) | ΔTm (Nucleic Acid [10]) | Activity (Nucleic Acid [14]) | IC50 (HT-29) | IC50 (Caco-2) | IC50 (K562) | IC50 (HuT78) | IC50 (SW-620) | IC50 (HeLa [4]) | IC50 (Jurkat) | IC50 [8] | IC50 (NCI-H358) | IC50 (MIA PaCa-2) | IC50 [11] | IC50 [12] | also measured
1 | CCOc1ccc2c(c1)SC1=N/C(=C\c3oc4ccccc4[n+]3C)C=C(C)N12.[O-][Cl+3]([O-])([O-])[O-] | < 4 | < 4 | 4.7 | Active | > 6 | 4 °C | 0 °C | Active | 600 nM | 800 nM | 1 nM | 50 nM | 100 nM | 2000 nM | 90 nM | 10 nM | 100 nM | 100 nM | 1000 nM | 500 nM | log Ks (Nucleic Acid [15]): 4.5
2 | CC1=C/C(=C/c2oc3ccccc3[n+]2C)N=C2Sc3cc(Cl)ccc3N12.[O-][Cl+3]([O-])([O-])[O-] | < 4 | < 4 | 4.6 | Active | > 6 | 1 °C | 0 °C | Active | 5100 nM | 8200 nM | 60 nM | 60 nM | 5800 nM | 3900 nM | 520 nM | 90 nM | 1100 nM | 2100 nM | 50300 nM | 7000 nM | log Ks (Nucleic Acid [15]): 4.5
3 | CC1=C/C(=C/c2oc3ccccc3[n+]2C)N=C2Sc3cc(OCCO)ccc3N12.[O-][Cl+3]([O-])([O-])[O-] | < 4 | < 4 | 4.6 | Active | > 6 | 0.8 °C | 0 °C | Active | 7200 nM | 40000 nM | 70 nM | 700 nM | 5200 nM | 80000 nM | 6600 nM | 590 nM | 9000 nM | 8500 nM | 70000 nM | 6800 nM | log Ks (Nucleic Acid [15]): 4.3
4 | CC1=C/C(=C/c2oc3ccccc3[n+]2C)C(C#N)=C2Sc3ccccc3N12.[O-][Cl+3]([O-])([O-])[O-] | < 4 | < 4 | 5.1 | Active | > 6 | 4.1 °C | 19.5 °C | – | 5900 nM | 9600 nM | 50 nM | 500 nM | 6800 nM | 8200 nM | 3900 nM | 100 nM | 2400 nM | 2200 nM | 50100 nM | 5500 nM | log Ks (Nucleic Acid [15]): 6.8; log Ks (Nucleic Acid [14]): 6.2
5 | CC1=C/C(=C/c2sc3ccccc3[n+]2C)N=C2C=CC=CN12.[O-][Cl+3]([O-])([O-])[O-] | – | – | – | inactive | – | 1.9 °C | 10.4 °C | inactive | 5200 nM | 10100 nM | 90 nM | 200 nM | 7000 nM | 9900 nM | 1300 nM | 600 nM | 2000 nM | 1800 nM | 9600 nM | 3600 nM | Activity (Nucleic Acid [1]): inactive; Activity (Nucleic Acid [2]): inactive; Activity (Calf thymus DNA [5]): inactive; Activity (Nucleic Acid [7]): inactive

Second part, led by results:

Row | log Ks (Nucleic Acid [1]) | log Ks (Nucleic Acid [2]) | log Ks (Calf thymus DNA [5]) | Activity (Nucleic Acid [6]) | log Ks (Nucleic Acid [7]) | ΔTm (Calf thymus DNA [9]) | ΔTm (Nucleic Acid [10]) | Activity (Nucleic Acid [14]) | SMILES | IC50 (HT-29) | IC50 (Caco-2) | IC50 (K562) | IC50 (HuT78) | IC50 (SW-620) | IC50 (HeLa [4]) | IC50 (Jurkat) | IC50 [8] | IC50 (NCI-H358) | IC50 (MIA PaCa-2) | IC50 [11] | IC50 [12] | also measured
6 | < 4 | < 4 | 5 | Active | > 6 | 2.7 °C | 0 °C | Active | COc1ccc2c(c1)SC1=N/C(=C\c3oc4ccccc4[n+]3C)C=C(C)N12.[O-][Cl+3]([O-])([O-])[O-] | 500 nM | 1000 nM | 1 nM | 100 nM | 600 nM | 2100 nM | 500 nM | 40 nM | 800 nM | 500 nM | 1100 nM | 700 nM | Activity (Nucleic Acid [3]): inactive; Activity (HeLa [13]): inactive
7 | < 4 | < 4 | 4.8 | Active | > 6 | 1.3 °C | 0 °C | Active | CC1=C/C(=C/c2sc3ccccc3[n+]2C)N=C2Sc3cc(OCCO)ccc3N12.[O-][Cl+3]([O-])([O-])[O-] | 1100 nM | > 100000 nM | 60 nM | 500 nM | 550 nM | 80000 nM | 900 nM | 1200 nM | 2100 nM | 510 nM | > 200000 nM | 930 nM | log Ks (Nucleic Acid [15]): 4.5
8 | < 4 | < 4 | 4.5 | Active | > 6 | 3 °C | 0 °C | Active | COc1ccc2c(c1)SC1=N/C(=C\c3sc4ccccc4[n+]3C)C=C(C)N12.[O-][Cl+3]([O-])([O-])[O-] | 500 nM | 800 nM | 1 nM | 10 nM | 200 nM | 500 nM | 100 nM | 100 nM | 600 nM | 60 nM | 3300 nM | 500 nM | Activity (Nucleic Acid [3]): inactive; log Ks (Nucleic Acid [15]): 4.2; Activity (HeLa [13]): inactive
